Earlier results, collected in patent US20040037773A1, “Method for detecting abnormal tissue using enhanced radiopharmaceutical uptake” (Block Medical Center, priority 2002, published 2004).

Tested on: mitochondria
Conditions: energy dependent manner

Q: For `[99Tc+].[C-]#[N+]CC(C)(C)OC.[C-]#[N+]CC(C)(C)OC.[C-]#[N+]CC(C)(C)OC.[C-]#[N+]CC(C)(C)OC.[C-]#[N+]CC(C)(C)OC.[C-]#[N+]CC(C)(C)OC` [sestamibi, Technetium-99m hexakis 2-methoxyisobutylisonitrile], which “Share of sestamibi taken up by mitochondria” value is on record?
A: over 90%
